Among the test systems are SK-MEL-5 melanoma; OVCAR-5 ovarian; RXF 393 renal; NCI-H522 lung; HCT-116 colon; 786-0 renal; EKVX NSCLC; U251 CNS; RPMI-8226 leukemia; HS 578T breast.
Common to all, as to assay: NCI-60 cell line screen, 48 h

Values joined by “and” are separate entries in the source; they are usually repeats but may differ in a detail not shown here. Equal entries are not always repeated.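 Five compound concentrations were applied to cells in 96-well plates for 48 hours; endpoints were derived by simple linear interpolation of the resulting dose-response curve. GI50 marks 50% less growth. TGI is the concentration that stops growth completely.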

`O=C(/C=N/O)Nc1cccc(Cl)c1I`: the TGI was above 100 µM in the test on SK-MEL-5 melanoma; above 100 µM with OVCAR-5 ovarian; 74.9 µM in the test with RXF 393 renal; above 100 µM in the test with NCI-H522 lung; above 100 µM in the test with HCT-116 colon; above 100 µM in the test with 786-0 renal. The TGI was 79.4 µM in the test with EKVX NSCLC, above 100 µM in the test with U251 CNS and above 100 µM with RPMI-8226 leukemia.

Regarding `CNC(=O)N(CCCCC(NC(C)=O)C(=O)NCc1ccccc1)Cc1ccccc1` (configuration not stated), the TGI in the test with SK-MEL-5 melanoma, with OVCAR-5 ovarian, with RXF 393 renal, in the test on NCI-H522 lung, with HCT-116 colon and with 786-0 renal was above 100 µM each time. For the same molecule, the TGI in the test on EKVX NSCLC, in the test on U251 CNS and with RPMI-8226 leukemia was above 100 µM each time.

With `CCOc1ccc(N=Nc2c(-c3ccccc3)nn(C(=O)CC(=O)Nc3ccccc3Cl)c2-c2ccccc2)cc1`, the TGI with SK-MEL-5 melanoma, with OVCAR-5 ovarian, with RXF 393 renal, with NCI-H522 lung, in the test on HCT-116 colon and with 786-0 renal was above 100 µM each time. In addition, the TGI with EKVX NSCLC, in the test with U251 CNS and with RPMI-8226 leukemia was above 100 µM in each case.

On to `COc1cc(C(=O)Nc2ccc(-c3nc4ccccc4[nH]3)cc2)cc(OC)c1OC`, for which the GI50 with SK-MEL-5 melanoma was 11.5 µM; in the test with OVCAR-5 ovarian, 11.7 µM; with RXF 393 renal it was 10.7 µM; with NCI-H522 lung, 7.75 µM; with HS 578T breast, 3.54 µM; in the test with HCT-116 colon, 10.7 µM. The GI50 in the test on 786-0 renal was 11.8 µM; in the test with U251 CNS it was 10.2 µM; in the test on RPMI-8226 leukemia, 6.35 µM. For the same molecule, the TGI in the test with SK-MEL-5 melanoma amounted to 25.9 µM; in the test on OVCAR-5 ovarian, 26.3 µM; in the test on RXF 393 renal it was 30.9 µM; in the test with NCI-H522 lung, 29.9 µM; in the test with HS 578T breast, 19.3 µM; in the test with HCT-116 colon, 25.3 µM. Further, the TGI was determined as 28.6 µM in the test on 786-0 renal, 23.4 µM in the test on U251 CNS and 30.6 µM with RPMI-8226 leukemia.

As to `CC(=O)Nc1ccc2c(c1)[nH]c(=O)c1cc(Cl)ccc12`, the TGI with SK-MEL-5 melanoma, in the test on OVCAR-5 ovarian, in the test with NCI-H522 lung, with HS 578T breast, in the test on HCT-116 colon and in the test with 786-0 renal was above 100 µM each time. Moreover, the TGI in the test with EKVX NSCLC and in the test with U251 CNS was above 100 µM each time.

Regarding `COc1cc(COC(=O)N(C)[C@@H](Cc2ccccc2)C(=O)O)c([N+](=O)[O-])cc1OC`, the TGI in the test with SK-MEL-5 melanoma, with OVCAR-5 ovarian, with HS 578T breast, in the test with HCT-116 colon, in the test with 786-0 renal and in the test with EKVX NSCLC was above 100 µM each time. For the same molecule, the TGI in the test on U251 CNS and in the test with RPMI-8226 leukemia was above 100 µM each time.

Take `O=C(Nc1ccc(-n2cc(-c3ccncc3)c(-c3ccc(Cl)c(O)c3)n2)cc1)c1ccc(Cl)c(Cl)c1`: the GI50 with SK-MEL-5 melanoma was 1.15 µM; in the test with OVCAR-5 ovarian, 10.2 µM; with NCI-H522 lung, 5.34 µM; in the test on HS 578T breast, 3.83 µM; in the test on HCT-116 colon, 2.89 µM; in the test on 786-0 renal it was 1.78 µM. Moreover, the GI50 with EKVX NSCLC was 5.81 µM; in the test on U251 CNS it was 2.65 µM; in the test with RPMI-8226 leukemia it was 0.736 µM. The TGI with SK-MEL-5 melanoma was 2.43 µM; with OVCAR-5 ovarian it was above 100 µM; in the test on NCI-H522 lung, above 100 µM; with HS 578T breast it was above 100 µM; in the test with HCT-116 colon, above 100 µM; in the test on 786-0 renal, 4.3 µM. In addition, the TGI was above 100 µM in the test on EKVX NSCLC, above 100 µM in the test with U251 CNS and 3.47 µM with RPMI-8226 leukemia.

Consider `Nc1cccc(C(=O)/C=C/c2ccccc2O)c1`, for which the TGI in the test on SK-MEL-5 melanoma, in the test on OVCAR-5 ovarian, in the test with RXF 393 renal, in the test with NCI-H522 lung, in the test on HCT-116 colon and in the test with 786-0 renal was above 100 µM throughout. Further, the figures for the TGI with EKVX NSCLC, with U251 CNS and with RPMI-8226 leukemia were above 100 µM, above 100 µM and 39.3 µM, respectively.

As for `O=C(NCCNC1=CC(=O)c2nc3ccccc3c3ccnc1c23)c1cnccn1`, the GI50 is 54.7 µM in the test with SK-MEL-5 melanoma; above 100 µM with OVCAR-5 ovarian; 44 µM in the test on NCI-H522 lung; 32.7 µM with HS 578T breast; 19.8 µM in the test with HCT-116 colon; 36.7 µM in the test with 786-0 renal. The results for the GI50 with EKVX NSCLC, with U251 CNS and in the test on RPMI-8226 leukemia were above 100 µM, 31 µM and 1.1 µM, respectively. Also, the TGI with SK-MEL-5 melanoma, with OVCAR-5 ovarian, with NCI-H522 lung, in the test on HS 578T breast, in the test with HCT-116 colon and in the test on 786-0 renal was above 100 µM throughout. Moreover, the TGI with EKVX NSCLC is above 100 µM; with U251 CNS it was above 100 µM; with RPMI-8226 leukemia, 24.3 µM.

As for `c1ccc(-c2nc3ccccc3[nH]2)c(OCCCCCOc2ccccc2-c2nc3ccccc3[nH]2)c1`, the GI50 with SK-MEL-5 melanoma is 6.07 µM; in the test on OVCAR-5 ovarian it was 20.2 µM; with NCI-H522 lung it was 5.46 µM; in the test on HS 578T breast, 15.4 µM; in the test with HCT-116 colon, 1.64 µM; in the test on 786-0 renal, 15.9 µM. The GI50 was 11.8 µM in the test with EKVX NSCLC and 12.5 µM in the test with U251 CNS. Besides, the TGI in the test with SK-MEL-5 melanoma was found to be 19.5 µM; in the test with OVCAR-5 ovarian it was 62.6 µM; in the test with NCI-H522 lung, 39.1 µM; in the test on HS 578T breast it was 41 µM; in the test on HCT-116 colon it was 3.24 µM; in the test with 786-0 renal, 35.3 µM. The TGI in the test on EKVX NSCLC was 32.7 µM; in the test with U251 CNS it was 25.6 µM.

In the case of `CN(C)CCC(/C=C/c1ccccc1)=N\Nc1c(F)c(F)c(F)c(F)c1F`, the TGI was 28.8 µM in the test on SK-MEL-5 melanoma; above 100 µM in the test on OVCAR-5 ovarian; above 100 µM in the test on RXF 393 renal; above 100 µM in the test on NCI-H522 lung; above 100 µM in the test with HCT-116 colon; above 100 µM in the test on 786-0 renal. Further, the TGI in the test with EKVX NSCLC, with U251 CNS and in the test on RPMI-8226 leukemia was above 100 µM each time.

With `CC1(C)O[C@@H](CCl)C[C@@H](C#N)O1`, the TGI in the test on SK-MEL-5 melanoma, in the test with OVCAR-5 ovarian, in the test with RXF 393 renal, with NCI-H522 lung, with HCT-116 colon and in the test on 786-0 renal was above 100 µM throughout. Besides, the TGI in the test with EKVX NSCLC, with U251 CNS and in the test with RPMI-8226 leukemia was above 100 µM each time.

`CN(C)CN(C)c1nc(N(C)C)nc(N(C)C)n1`: the TGI in the test with SK-MEL-5 melanoma, in the test with OVCAR-5 ovarian, in the test on RXF 393 renal, in the test with NCI-H522 lung, in the test on HCT-116 colon and in the test with 786-0 renal was above 100 µM each time. For the same molecule, the TGI in the test on EKVX NSCLC, in the test on U251 CNS and in the test with RPMI-8226 leukemia was above 100 µM each time.

On to `O=C(O)c1cc2ccc(Cl)cc2c(O)c1C1=CCCCC1`, for which the TGI with SK-MEL-5 melanoma was 81.9 µM; with OVCAR-5 ovarian it was above 100 µM; in the test with RXF 393 renal, above 100 µM; in the test with NCI-H522 lung, 92.9 µM; with HCT-116 colon, above 100 µM; with 786-0 renal, above 100 µM. Also, the TGI in the test on EKVX NSCLC, in the test on U251 CNS and with RPMI-8226 leukemia was above 100 µM in each case.

For `Cc1cn([C@H]2CN(O)C[C@@H](CO)O2)c(=O)[nH]c1=O`, the TGI in the test with SK-MEL-5 melanoma, with OVCAR-5 ovarian, in the test on RXF 393 renal, in the test with HS 578T breast, with HCT-116 colon and in the test with 786-0 renal was above 100 µM throughout. Besides, the TGI in the test on EKVX NSCLC, in the test on U251 CNS and with RPMI-8226 leukemia was above 100 µM each time.

As to `CC[C@]1(O)C[C@@H]2CN(CCc3c([nH]c4ccccc34)[C@@](C(=O)OC)(c3cc4c(cc3OC)N(C)[C@H]3[C@@](O)(C(=O)OC)[C@H](OC(=O)CCCBr)[C@]5(CC)C=CCN6CC[C@]43[C@@H]65)C2)C1`, the GI50 is below 0.023 µM in the test on OVCAR-5 ovarian; below 0.01 µM in the test with RXF 393 renal; below 0.0185 µM with HS 578T breast; below 0.01 µM with HCT-116 colon; 0.0535 µM in the test on 786-0 renal; 0.336 µM in the test with EKVX NSCLC. Besides, the GI50 in the test with U251 CNS was 0.0334 µM; in the test on RPMI-8226 leukemia it was below 0.01 µM. Further, the TGI in the test on OVCAR-5 ovarian is above 100 µM; in the test on RXF 393 renal, below 0.01 µM; with HCT-116 colon it was above 32.4 µM; in the test on 786-0 renal, above 33.1 µM; in the test with EKVX NSCLC it was above 100 µM; with U251 CNS, above 100 µM. The molecule further returned a TGI in the test with RPMI-8226 leukemia of 0.492 µM.

Consider `CC(=O)O[C@H]1C(=O)[C@@]2(C)C([C@H](OC(=O)c3ccccc3)[C@]3(O)C[C@H](OC(=O)[C@H](O)[C@@H](NC(=O)c4ccc(Cl)cc4)c4ccccc4)C(C)=C1C3(C)C)C1(OC(C)=O)CO[C@@H]1C[C@@H]2O` (some centres not stated), for which the TGI with SK-MEL-5 melanoma was 13.5 µM; with OVCAR-5 ovarian, 25 µM; in the test on HS 578T breast, 0.185 µM; with HCT-116 colon it was 3.31 µM and 1.85 µM; in the test with 786-0 renal it was 3.09 µM and 29.7 µM; with EKVX NSCLC it was 25 µM and > 100 µM. The molecule further had a TGI with RPMI-8226 leukemia of 11.7 µM. Also, the GI50 with RXF 393 renal was 0.157 µM; in the test with 786-0 renal, 0.045 µM; with EKVX NSCLC, 1.11 µM.
